Data published in ChEMBL document CHEMBL3507680, “University of Dundee, Gates Library screen for HepG2 cell viability”.

Test: Human HepG2 cell viability assay in 384 well format
Assay type: toxicity, cell-based
Design: dose 125 nL, time 70.5 hour; concentration not given beside the values
Conditions: HepG2 cells, read-out: Inhibition

| SMILES | cytotoxicity at 70.5 h |
| --- | --- |
| COc1ccccc1CC1CCN(C(=O)CCc2ccccn2)CC1 | -8.07% |
| Cc1nc(C2CN(C)CCO2)cc(N2CCSCC2)n1 (configuration not stated) | 26.1% |
| CC1CCCCN1C(=O)COc1nc(C(C)(C)C)no1 (configuration not stated) | -2.52% |
| COc1cc(CNC(=O)CNc2cc(Cl)ccc2OC)ccn1 | 3.6% |
| CCS(=O)(=O)CC(C)NC(=O)N(C)Cc1cc(Cl)cn1C (configuration not stated) | -7.58% |
| CC(=O)Nc1nc(C2CCN(C(=O)c3ccncc3)CC2)cs1 | 24.9% |
| Cc1noc(C)c1CN1CCCCC1CCc1ccc(O)cc1 (configuration not stated) | -1.36% |
| CN(Cc1ccc(N(C)C)cc1)C(=O)CS(=O)(=O)c1ccc(Cl)cc1 | 17% |
| CC(=O)N1Cc2nccn2CC(CNC(=O)c2cnccn2)C1 (configuration not stated) | -13.1% |
| NC(=O)c1nc(COc2ccc3c(c2)OCO3)no1 | -12.9% |
| CCc1noc(C(C)Sc2nnc(C3CC3)n2CC(N)=O)n1 (configuration not stated) | -0.541% |
| CC(C)(C)CCNC(=O)c1ccc(Cl)c(NS(C)(=O)=O)c1 | 8.13% |
| CS(=O)(=O)N1CCCCCC1C1CCN(c2ncccc2C#N)CC1 (configuration not stated) | -0.285% |
| CN1CCN(C(=O)C2CC=CC2)c2ccccc21 | 9.41% |
| Cn1nccc1NC(=O)c1cccc(CN2C[C@H]3CC[C@@H](C2)N3)c1 | -1.03% |
| O=C(CCn1c(C(F)F)cc2cccnc21)NC1CC1 | -5.74% |
| CN1CCOCC2(CCN(Cc3ccc[nH]3)CC2)C1 | 30% |
| C=Cn1ncc(CN2C[C@@H]3CCCN3C[C@@H]2CCSC)c1C | -6.32% |
| CO[C@@H]1CCN(C2CCOCC2)C[C@@H]1Cc1ccccc1 | -11.8% |
| CC(C)NC(=O)NCc1cc(-c2cccc(Cl)c2)nn1C | 7.95% |
| CCCN1CCN(C(=O)C(C)n2cc(Br)cn2)CC1 (configuration not stated) | -7.56% |
| CCOCCn1nnc(C2(NC(=O)c3ccccc3)CCCC2)n1 | 3.3% |
| O=C(c1ccco1)N1CCO[C@@H]2CNCC[C@@H]2C1 | 32.1% |

| SMILES | cytotoxicity at 70.5 h |
| --- | --- |
| CN(C)S(=O)(=O)N1CCC[C@]2(C[C@@H](Oc3ncccc3F)CO2)C1 | -11.4% |
| O=C(COCC(=O)N(c1ccccc1)c1ccccc1)N1CCCC1 | -3.7% |
| CNC(=O)[C@@H]1C[C@H]2CN(Cc3ccc(C)o3)C[C@H]2N1C(C)=O | -0.0424% |
| CS(=O)(=O)N1CC[C@H]2O[C@H](C(=O)NCCc3ccncc3)CC[C@H]21 | 14.6% |
| Cn1c(CC2CCS(=O)(=O)C2)nnc1SCCOc1ccccc1F (configuration not stated) | -8.16% |
| CCc1noc(CN(CCc2ccccc2)C2CCN(C)CC2)n1 | 25.9% |
| CC(C)C(NC(=O)c1ccc(=O)[nH]c1)c1nnc2n1CCNCC2 (configuration not stated) | -6.19% |
| Cc1cc(C2NC(=O)CN2Cc2ccc(Br)cc2)cc(C)c1O (configuration not stated) | 0.666% |
| CC(C)NC(=O)COc1ccc(-c2nc(C(C)C)no2)cc1 | -19.4% |
| Cn1cc(C(=O)CC2CCCN2C(=O)c2n[nH]c3ccccc23)cn1 (configuration not stated) | 8.22% |
| O=C(NCCCOC1CCCCC1)C1NCCc2[nH]cnc21 (configuration not stated) | -3.08% |
| Cc1cnc(C(=O)N2CCC3(CC2)CC(c2ccccc2)C(=O)N3)cn1 (configuration not stated) | 8.04% |
| O=C(NCCc1ccccn1)N1CCSC2(CCCCC2)C1 | 1.93% |
| Cc1ccc(CN2CC[C@H]3[C@H]2CC(=O)N3c2ccsc2)o1 | 5.86% |
| O=C(c1ccc(-c2nc[nH]n2)cc1)N1CC[C@H](CO)[C@@H](O)C1 | -10.8% |
| Cc1cccc(N2CCC3(CCCC(=O)N3)CC2)n1 | -0.82% |
| CCN1CC(C(=O)N2CCC(Oc3ccccc3Cl)CC2)CC1=O (configuration not stated) | 4.13% |
| CCn1nc(C)c2ncnc(N3CCCC(C)C3)c21 (configuration not stated) | 8.26% |
| CCS(=O)(=O)c1ccc(NCc2csc(C(C)C)n2)cc1 | 4.81% |
| COCCNC(=O)c1ccc2c(=O)n3c(nc2c1)CCCCC3 | -22.9% |
| CCOc1cncc(N(C)CC(=O)NC)n1 | -7.85% |
| Cc1cccc(C(=O)N2CCN(CCOC(C)C)CC2)n1 | -6.81% |
| CCN1CC[C@@]2(C(=O)N(C)C)CCN(C(=O)Cc3ccccc3)CC[C@@H]12 | -8.1% |

| SMILES | cytotoxicity at 70.5 h |
| --- | --- |
| COc1ccc2c(c1)CC(NCCCn1nc(C)nc1C)CC2 (configuration not stated) | -9.14% |
| O=C(CO)N1CC[C@@H](N2CCN(c3ccccc3F)CC2)[C@H](O)C1 | 6.39% |
| CCN(CC)C(=O)Nc1ccc(C(=O)N(C)C)c(C)c1 | 2.13% |
| Fc1cnc(N2CCO[C@H]3CN(CC4CCOC4)C[C@H]32)nc1 (some centres not stated) | 26.2% |
| COCCn1ccc(=O)c(OCC(=O)Nc2cccc(OC)c2)c1C | 13.8% |
| O=C(NCCOc1cccc(Cl)c1Cl)N1CCC2(CC1)OCCO2 | -4.01% |
| CC(C(=O)Nc1ccc(C#N)cc1)N1CCc2ccccc21 (configuration not stated) | 43.4% |
| O=C(NC[C@@H]1CCCO1)c1ccc(S(=O)(=O)N[C@@H]2CCNC2)cc1 | 6% |
| Cc1noc(C)c1CN1CCO[C@H]2CN(Cc3nccn3C)C[C@H]21 | 0.477% |
| CN1CCN(c2cc(NC(=O)c3cnccn3)ncn2)CC1 | 0.507% |
| CCCN1CC[C@@H]2OC[C@H](C(=O)Nc3cccnc3)C[C@@H]2C1 | 2.64% |
| CC(=O)N1CCC2(CC1)CN(CC1CC1)c1ccc(F)cc12 | 1.47% |
| CCOc1ccc(C(=O)Nc2c(C)nc3ccc(Cl)cn3c2=O)cc1 | -3.81% |
| COc1ccccc1N1CC(NC(=O)Cn2cc(C)nn2)CC1=O (configuration not stated) | -7.03% |
| CC(C)(O)CCc1cccc(C(=O)NCc2cnn3cccnc23)c1 | -4.68% |
| O=C1CCC2(CCCN(C(=O)c3cccs3)C2)N1 (configuration not stated) | 35.1% |
| COc1ccc(OC)c(C(=O)N(C)Cc2nnc3ccccn23)c1 | -15.1% |
| O=C(CCc1nnc2ccccn2c1=O)NCc1ccco1 | 24.6% |
| COc1cccc2c1OCC(Cc1cnc(N)c(C)c1)C2 (configuration not stated) | -8.04% |
| Cn1cccc1CN1CCC2(CCCN(C(=O)c3cnccn3)C2)C1 (configuration not stated) | 17% |
| CC(C)NC(=O)Cn1cc(OCc2ccc(F)cc2)c(=O)cc1CO | -4.49% |
| CCn1cc(C(=O)N2CCCC(c3noc(C)n3)C2)cn1 (configuration not stated) | -2.74% |
| CCN(Cc1ccccc1)S(=O)(=O)C1CCS(=O)(=O)CC1 | -10.9% |

| SMILES | cytotoxicity at 70.5 h |
| --- | --- |
| Cn1ccnc1C(=O)N[C@@H]1CN(Cc2ccoc2)[C@@H]2CCCO[C@@H]21 | -2.77% |
| Cc1oc(NC(=O)C(C)N2CCN(C(C)(C)CO)CC2)c(C#N)c1C (configuration not stated) | -4.43% |
| CCCN1CCC(Cc2nc(CN3CCN(C)CC3)no2)CC1 | -5.37% |
| CN(CCNC(=O)Nc1ccncc1)C1CCCCC1 | 30.8% |
| Cc1nc2ccccc2c(=O)n1CCC(=O)N1CCSCC1 | -4.52% |
| CCOCCN1CCCC1CS(N)(=O)=O (configuration not stated) | -10.1% |
| CO[C@@H]1CO[C@@]2(CCCN(S(=O)(=O)c3ccccc3)C2)C1 | -14.8% |
| CC(NCc1cccc(COC2CCCC2)c1)c1cnn(C)c1 (configuration not stated) | -3.04% |
| CCCn1ncc(C(=O)N(C)Cc2cc(C3CC3)[nH]n2)c1C | 0.995% |
| Cc1cnc(C2CCCN(C(=O)c3c[nH]c(=O)[nH]c3=O)C2)s1 (configuration not stated) | -8.7% |
| Cc1cnn(CC2CCCN2CC(=O)N(C)Cc2ccco2)c1 (configuration not stated) | -4.69% |
| Cc1cc(NC(=O)CN2CCN(c3nccs3)C(C)C2)n(C)n1 (configuration not stated) | -7.64% |
| O=C(NCCNc1ncccn1)N1CCSCC1 | -11.7% |
| CN(C)[C@@H]1CN(Cc2ccoc2)C[C@@H]2CCCO[C@@H]21 | -8.48% |
| O=C(NCCN1CCCC1)c1nc2c(o1)CN(c1ncccn1)C2 | -1.07% |
| CNCC(=O)N1CCC(c2ccnc(Nc3ccc(C)cn3)n2)C1 (configuration not stated) | -1.4% |
| O=C(CC1CC1)N[C@@H]1CN(Cc2ccc(F)cc2)C[C@@H]2CCCO[C@@H]21 | -3.12% |
| CNC(=O)c1cc2c(nc1N(C)C)CCN(C)CC2 | -2.14% |
| CCc1sc(-c2nnc(CNCCn3cccn3)o2)cc1C | -0.343% |
| O=C(Cc1cccnc1)N1CCC2(CC1)CCN(C1CCOCC1)CC2 | -5.53% |
| COCCN1C[C@H]2CN(C(=O)NC(C)C)CCN2C1=O | -3.98% |
| CO[C@@H]1c2ccccc2C2(CCN(C(=O)CNC(=O)C(C)C)CC2)[C@H]1O | -6.67% |
| OC(COCc1ccco1)CSc1nnc2ccccn12 (configuration not stated) | -6.03% |

| SMILES | cytotoxicity at 70.5 h |
| --- | --- |
| CC(C)c1noc(CCNC(=O)N2CCSC(C(C)C)C2)n1 (configuration not stated) | -3.03% |
| COc1cccc(/C=C/CCN2CCN(S(C)(=O)=O)CC2)c1 | -3.47% |
| O=C1COC2(CCN(S(=O)(=O)C3CC3)CC2)CN1c1ccsc1 | -17.5% |
| CCN1CCO[C@@H]2CN(C(=O)c3ccc4[nH]ccc4c3)CC[C@@H]2C1 | -7.4% |
| CC1(C)C(C(=O)NCCC2CN(Cc3c[nH]cn3)CCO2)C1(C)C (configuration not stated) | -13.9% |
| CC(C)Cc1cn(C2CCN(C(C)CC3CC3)CC2)nn1 (configuration not stated) | -0.853% |
| Cc1cnccc1NCCNC(=O)[C@H]1CNC[C@H](C(=O)N2CCCC2)C1 | -4.18% |
| COc1ncnc2c1CCN(c1cccc(F)c1)CC2 | -6.07% |
| CC(C)CN(Cc1ccc(C(F)(F)F)nc1)Cc1cnn(C)c1 | -3.14% |
| CCn1nc(C)c(-c2cncn2CCN(C)C2CCCC2)c1C | -7.35% |
| COC(=O)c1ccccc1NS(=O)(=O)c1c(C)nn(C)c1C | -6.21% |
| COCCCC(=O)NCc1cccc(NC(N)=O)c1 | -3.29% |
| CCOCC(=O)N1CCC2(CC1)COC(COCc1ccccn1)C2 (configuration not stated) | 4.72% |
| Cc1nc(C)c(CC(=O)Nc2nnc(C)s2)c(=O)[nH]1 | 0.383% |
| CCOCCC(=O)N1CCCCC1CCn1cccn1 (configuration not stated) | -6.8% |
| CCOCC(=O)N1CCC(Cc2nnc(SC)n2C)CC1 | -3.88% |
| Fc1ccc(CN2CCCC3(CCN(Cc4ncc[nH]4)C3)C2)cc1F (configuration not stated) | -0.549% |
| CC(C)n1c(=O)c2sccc2n(CC(=O)Nc2cccc(Cl)c2)c1=O | -12.8% |
| Cc1cc(N2CCN(CC(=O)N(C)C)CC2)nc(-c2ccncc2)n1 | 27.8% |
| Cc1nc2[nH]cc(C(=O)N3CCCCC3c3ccc(F)cc3)c(=O)n2n1 (configuration not stated) | 3.11% |
